Measurements taken from paper PMC12259270, “Sensory neuron–expressed FGF13 controls nociceptive signaling in diabetic neuropathy models” (The Journal of Clinical Investigation, 2025).
Residues, ends and D or L forms follow the SMILES beside them. *: point of attachment. Cbz = O=C(OCc1ccccc1)*; NHPh = c1ccc(N*)cc1; OtBu = CC(C)(C)O*

System: Na+ currents in hIPSC-derived sensory neurons (RealDRG)
Assay: Whole-cell voltage clamp, hIPSC-derived sensory neurons (RealDRG) with Nav1.7 blocker ProTx-II
Assay type: cell-based, human
Conditions: for Activation / Peak Density / Steady-State inactivation / Tau (τ) / Long-term inactivation, 2nd Pulse / Long-term inactivation, 3rd Pulse / Long-term inactivation, 4th Pulse: RealDRG
Method: Next, we conducted whole-cell patch-clamp electrophysiological recordings in hIPSC-derived sensory neurons under three conditions: unstimulated and treated with 0.07% ethanol (capsaicin vehicle), treated with capsaicin (100 nM, 10 minutes), and treated with capsaicin plus SB-366791 (10 μM), a selective TRPV1 inhibitor. Each group was exposed to either vehicle (0.01% DMSO) or PW164 (50 μM), with all recordings performed in the presence of the Nav1.8 blocker A-803467 (300 nM) ([41]). The experimental groups are color coded in Figure 2A. Capsaicin caused potentiation of INa (Figure 2A) and induced hyperpolarizing shifts in the V1/2 of activation (Figure 2B) and SSI (Figure 2C). […] Next, we investigated whether silencing FGF13 could replicate PW164’s effects and prevent additional activity of the compound. hIPSC-derived sensory neurons were transfected with a previously validated pAAV-shFGF13-GFP construct ([42]) (Supplemental Figure 8). […] Neither PW164 nor FGF13 silencing affected Na+ currents in neurons transfected with pAAV-shCTRL-GFP or pAAV-shFGF13-GFP, whether unstimulated or treated with capsaicin in the presence of ProTx II (Supplemental Figure 9 and Supplemental Table 6). Thus, PW164 selectively modulated FGF13-dependent Na^+ current sensitization via TRPV1, with FGF13 silencing mimicking and validating PW164’s effect. […]
Whole-cell patch clamp electrophysiology
HEK293-Nav1.7 cells, HEK293 stably expressing human Nav1.6 (HEK-Nav1.6), HEK293 stably expressing human Nav1.5 (HEK-Nav1.5), human hIPSC-derived sensory neurons (RealDRGTM from Anatomic Incorporated 1020F1-1M) and donor-derived DRG neurons were plated at low density on glass coverslips and processed for whole-cell patch clamp electrophysiology in voltage-clamp and/or current clamp mode. Whole-cell patch electrophysiological experiments were conducted following previously published studies (26). Current densities were obtained by dividing INa amplitude by membrane capacitance. Current –voltage relationships were generated by plotting current density as a function of the […]. Conductance (G Na) was calculated by the […]
where INa is the current amplitude at voltage Vm, and Erev is the Na+ reversal potential.
Activation curves were derived by plotting normalized GNa as a function of test potential and fitted using […]
Where GNa,Max is the maximum conductance, Va is the membrane potential of half-maximal activation, Em is the membrane voltage and k is the slope factor. For steady -state inactivation, normalized current amplitude (INa/INa,Max) at the test potential was plotted as a function of prepulse potential (Vm) and fitted using the […]
Where Vh is the potential of half-maximal inactivation, E m is the membrane voltage, and k is the slope factor.
Transient INa inactivation decay was estimated with the standard exponential equation. Inactivation time constant (tau, τ) was fitted with the following equation: […]
where I(t) is the amplitude of the current at time t and Iss is the steady-state current during a single voltage-step.
The goodness of fitting was determined by correlation coefficient (R), and the cutoff of R was set at 0.85. To observe effects on long-term inactivation (LTI), a four-step protocol was employed during which cells were subjected to four 0 mV, 20 ms depolarization pulses separated by −90 mV, 40 ms recovery intervals. To control for various cell sizes, the current densities were calculated by dividing INa peak current amplitude/membrane capacitance (Cm). To represent the fraction of channels entering into LTI, the peak INa observed during depolarization cycles 2-4 was normalized to the peak INa observed during depolarization cycle 1 (INa/INa,Cycle 1) and plotted as a function of the depolarization cycle.
The cumulative (frequency-dependent) use-dependency was determined by applying 20 pulses with a depolarization to −10 mV (50 ms duration) and 50 ms recovery intervals with a train of 20 pulses at 10 Hz from a holding potential at -70 mV. […]

[1] = + Nav1.7 blocker ProTx-II, Naive + ZL192
[2] = + Nav1.7 blocker ProTx-II, Naïve + ZL192
[3] = + Nav1.7 blocker ProTx-II, Cap+ - PW164
[4] = + Nav1.7 blocker ProTx-II, Cap+ PW164
[5] = + Nav1.7 blocker ProTx-II, Naïve + PW164
[6] = + Nav1.7 blocker ProTx-II, Naïve - PW164

Compound: CC(=O)N[C@@H](Cc1ccccc1)C(=O)N[C@@H](CC(C)C)C(=O)N1CCC[C@H]1C(=O)N[C@@H](CCCCN)C(=O)Nc1ccccc1 [ZL192] (Ac-FLPK-NHPh)
- UseDependency (Suppl. Figure S14D) (Control cells, pulse 1): 1
- UseDependency (Suppl. Figure S14D) (Control cells, pulse 3): 0.9097
- UseDependency (Suppl. Figure S14D) (Control cells, pulse 5): 0.8784
- UseDependency (Suppl. Figure S14D) (Control cells, pulse 10): 0.8714
- UseDependency (Suppl. Figure S14D) (Control cells, pulse 15): 0.8646
- UseDependency (Suppl. Figure S14D) (Control cells, pulse 20): 0.8556
- UseDependency (Suppl. Figure S14D) (Naive cells, pulse 1): 1
- UseDependency (Suppl. Figure S14D) (Naive cells, pulse 3): 0.9097
- UseDependency (Suppl. Figure S14D) (Naive cells, pulse 5): 0.8778
- UseDependency (Suppl. Figure S14D) (Naive cells, pulse 10): 0.8143
- UseDependency (Suppl. Figure S14D) (Naive cells, pulse 15): 0.7732
- UseDependency (Suppl. Figure S14D) (Naive cells, pulse 20): 0.7489
- Activation [1]: −27.64 ± 0.93 mV
- Peak Density [1]: −96.53 ± 4.85 pA/pF
- Steady-State inactivation [1]: −59.34 ± 1.61 mV
- Tau (τ) [1]: 1.33 ± 0.06 ms
- Long-term inactivation, 2nd Pulse [2]: −99.26 ± 0.91 % maximal Na+ current
- Long-term inactivation, 3rd Pulse [2]: −100.38 ± 1.08 % maximal Na+ current
- Long-term inactivation, 4th Pulse [2]: −100.45 ± 1.3 % maximal Na+ current
- Activation (+ ProTx-II, Control + ZL192): −30.93 ± 0.89 mV
- Long-term inactivation, 2nd Pulse (+ ProTx-II, Control + ZL192): −98.61 ± 0.74 % maximal Na+ current
- Long-term inactivation, 3rd Pulse (+ ProTx-II, Control + ZL192): −99.17 ± 0.84 % maximal Na+ current
- Long-term inactivation, 4th Pulse (+ ProTx-II, Control + ZL192): −98.95 ± 1.01 % maximal Na+ current
- Peak Density (+ ProTx-II, Control + ZL192): −101.87 ± 5.35 pA/pF
- Steady-State inactivation (+ ProTx-II, Control + ZL192): −53.15 ± 0.91 mV
- Tau (τ) (+ ProTx-II, Control + ZL192): 1.0 ± 0.04 ms
- Activation (+ ProTx-II, Sh + ZL192): −28.74 ± 1.12 mV
- Peak Density (+ ProTx-II, Sh + ZL192): −99.91 ± 8.28 pA/pF
- Steady-State inactivation (+ ProTx-II, Sh + ZL192): −62.97 ± 1.64 mV
- Tau (τ) (+ ProTx-II, Sh + ZL192): 1.27 ± 0.08 ms
- Long-term inactivation, 2nd Pulse (+ ProTx-II, Sh + Zl192): −96.65 ± 1.81 % maximal Na+ current
- Long-term inactivation, 3rd Pulse (+ ProTx-II, Sh + Zl192): −97.25 ± 2.18 % maximal Na+ current
- Long-term inactivation, 4th Pulse (+ ProTx-II, Sh + Zl192): −99.23 ± 3.28 % maximal Na+ current
- UseDependency (Suppl. Figure S14D) (ShFGF13 cells, pulse 1): 1
- UseDependency (Suppl. Figure S14D) (ShFGF13 cells, pulse 3): 0.9541
- UseDependency (Suppl. Figure S14D) (ShFGF13 cells, pulse 5): 0.9361
- UseDependency (Suppl. Figure S14D) (ShFGF13 cells, pulse 10): 0.8879
- UseDependency (Suppl. Figure S14D) (ShFGF13 cells, pulse 15): 0.8614
- UseDependency (Suppl. Figure S14D) (ShFGF13 cells, pulse 20): 0.8526
- activity on Na+ currents with ProTx-II (ZL192 50 μM, ProTx-II 10 nM, Suppl Fig 14): no activity

Compound: COC(=O)[C@@H](NC(=O)[C@H](CCC(=O)OC(C)(C)C)NC(=O)[C@H](CC(C)C)NC(=O)[C@@H]1CCCN1C(=O)OCc1ccccc1)C(C)C [PW164] (Cbz-PLE(OtBu)V-OMe)
- effect on capsaicin-potentiated Na+ currents with ProTx-II (ProTx-II 10 nM, Suppl Fig 7): does not have any effect
- Activation [3]: −29.15 ± 0.86 mV
- Peak Density [3]: −80.16 ± 8.05 pA/pF
- Steady-State inactivation [3]: −61.95 ± 1.29 mV
- Tau (τ) [3]: 0.98 ± 0.08 ms
- Long-term inactivation, 2nd Pulse [4]: −118.43 ± 3.81 % maximal Na+ current
- Long-term inactivation, 3rd Pulse [4]: −120.42 ± 4.69 % maximal Na+ current
- Long-term inactivation, 2nd Pulse [5]: −105.72 ± 2.72 % maximal Na+ current
- Long-term inactivation, 3rd Pulse [5]: −110.76 ± 2.72 % maximal Na+ current
- Long-term inactivation, 4th Pulse [5]: −113.94 ± 3.54 % maximal Na+ current
- Activation [6]: −29.68 ± 1.17 mV
- Peak Density [6]: −76.99 ± 6.01 pA/pF
- Steady-State inactivation [6]: −61.23 ± 1.29 mV
- Tau (τ) [6]: 0.87 ± 0.04 ms
